We go through 33 molecules from ChEMBL document CHEMBL4765425, “Synthesis of 1,3,4-oxadiazole derivatives with anticonvulsant activity and their binding to the GABA receptor” (Eur J Med Chem, 2020).

Data set [1] concerns Mus musculus. In words: Anticonvulsant activity in Kunming mouse assessed as reduction in MES-induced seizure at 300 mg/kg, ip measured after 30 mins. It is filed as functional, organism-based.
For data set [2], the system named is Mus musculus. In words: Anticonvulsant activity in Kunming mouse assessed as reduction in ScPTZ-induced seizure at 300 mg/kg, ip measured after 30 mins. The format is functional, organism-based.
Data set [3] can be described thus: Neurotoxicity in Kunming mouse at 100 mg/kg, ip measured after 30 mins by rotarod test. The format is toxicity, organism-based. Particulars: in vivo, 0.5 h. A general note: In the rotarod test animals must keep their balance on a rotating rod.
A short description of data set [4]: Neurotoxicity in Kunming mouse at 300 mg/kg, ip measured after 30 mins by rotarod test. The format is toxicity, organism-based. Particulars: in vivo, 0.5 h.
Data set [5] deals with Mus musculus. The data set can be described thus: Anticonvulsant activity in Kunming mouse assessed as reduction in MES-induced seizure at 100 mg/kg, ip measured after 30 mins. The format is functional, organism-based.
Data set [6] deals with Mus musculus. The data set can be described thus: Anticonvulsant activity in Kunming mouse assessed as reduction in ScPTZ-induced seizure at 100 mg/kg, ip measured after 30 mins. It is filed as functional, organism-based.
The subject of data set [7] is Mus musculus. In words: Anticonvulsant activity in Kunming mouse assessed as reduction in MES-induced seizure at 30 mg/kg, ip measured after 30 mins. It is filed as functional, organism-based.

The structures appear in SMILES notation. Activity calls are given as the source filed them. The rule behind the calls is not given here.

On to `O=C1CCc2cc(OCc3nnc(SCc4cccc(C(F)(F)F)c4)o3)ccc2N1`, for which the result in the data set with Mus musculus [1] and with Mus musculus [2] was Active. For the same molecule, the Activity result in data set [3] and in data set [4] was “Non-Toxic” each time.
`CC(=O)Nc1ccc(OCc2nnc(SCc3ccc(Cl)cc3)o2)cc1`: the outcome in the data set on Mus musculus [5] and in the data set with Mus musculus [6] was inactive. The Activity entry in data set [3] and in data set [4] was “Non-Toxic” each time.
For `CC(=O)Nc1ccc(OCc2nnc(SCc3ccccc3Cl)o2)cc1`, the result in the data set with Mus musculus [1] and in the data set on Mus musculus [2] was Active. For the same molecule, the Activity result in data set [3] and in data set [4] was “Non-Toxic” in each case.
Take `CCCCCCCSc1nnc(COc2ccc(NC(C)=O)cc2)o1`: the Activity entry in data set [3] and in data set [4] was “Non-Toxic” in each case.
Take `CCCCCCCCCSc1nnc(COc2ccc3c(c2)CCC(=O)N3)o1`: in the data set on Mus musculus [1], the result was Active. In the data set on Mus musculus [6], the outcome was inactive. Further, the Activity entry in data set [3] and in data set [4] was “Non-Toxic” each time.
On to `O=C1CCc2cc(OCc3nnc(SCc4ccccc4F)o3)ccc2N1`, for which the result in the data set with Mus musculus [1] and in the data set with Mus musculus [2] was Active. Moreover, the Activity result in data set [3] and in data set [4] was “Non-Toxic” in each case.
Consider `Cc1cccc(CSc2nnc(COc3ccc4c(c3)CCC(=O)N4)o2)c1`, for which the outcome with Mus musculus [1] and in the data set on Mus musculus [2] was Active. The Activity result in data set [3] and in data set [4] was “Non-Toxic” throughout.
For the molecule `CCCCCCCCCSc1nnc(COc2ccc(NC(C)=O)cc2)o1`, the result with Mus musculus [5] and with Mus musculus [6] was inactive. For the same molecule, the Activity entry in data set [3] and in data set [4] was “Non-Toxic” in each case.
For `CCCCSc1nnc(COc2ccc(-n3cnnc3)cc2)o1`, in the data set with Mus musculus [1], the outcome was Active. Further, the Activity result in data set [3] and in data set [4] was “Non-Toxic” in each case.
For `CC(=O)Nc1ccc(OCc2nnc(SCc3ccccc3C)o2)cc1`, the result in the data set with Mus musculus [1] and in the data set with Mus musculus [2] was Active. Moreover, the Activity result in data set [3] and in data set [4] was “Non-Toxic” in each case.
For `CCCCCCCSc1nnc(COc2ccc3c(c2)CCC(=O)N3)o1`, the result in the data set with Mus musculus [1] was Active. Besides, the Activity entry in data set [3] and in data set [4] was “Non-Toxic” each time.
Consider `CCCCCCCCSc1nnc(COc2ccc(NC(C)=O)cc2)o1`, for which the result in the data set with Mus musculus [7] was inactive. The Activity result in data set [3] and in data set [4] was “Non-Toxic” each time.
In the case of `O=C1CCc2cc(OCc3nnc(SCc4cccc(Cl)c4)o3)ccc2N1`, the result with Mus musculus [1] and in the data set with Mus musculus [2] was Active. The Activity entry in data set [3] and in data set [4] was “Non-Toxic” each time.
`CC(=O)Nc1ccc(OCc2nnc(SCc3cccc(F)c3)o2)cc1`: the result in the data set with Mus musculus [5] and in the data set on Mus musculus [6] was inactive. In addition, the Activity result in data set [3] and in data set [4] was “Non-Toxic” each time.
As to `CC(=O)Nc1ccc(OCc2nnc(SCc3cccc(C)c3)o2)cc1`, the Activity entry in data set [3] and in data set [4] was “Non-Toxic” throughout.
For the molecule `O=C1CCc2cc(OCc3nnc(SCc4cccc(F)c4)o3)ccc2N1`, the Activity result in data set [3] and in data set [4] was “Non-Toxic” in each case.
For the molecule `CC(=O)Nc1ccc(OCc2nnc(SCc3cccc(Cl)c3)o2)cc1`, the result with Mus musculus [5] and in the data set on Mus musculus [6] was inactive. The Activity entry in data set [3] and in data set [4] was “Non-Toxic” in each case.
In the case of `O=C1CCc2cc(OCc3nnc(SCc4ccccc4C(F)(F)F)o3)ccc2N1`, the result in the data set with Mus musculus [1] and with Mus musculus [2] was Active. Further, the Activity entry in data set [3] and in data set [4] was “Non-Toxic” in each case.
Regarding `O=C1CCc2cc(OCc3nnc(SCc4ccc(Cl)cc4)o3)ccc2N1`, in the data set with Mus musculus [6], the result was inactive. Also, the Activity result in data set [3] and in data set [4] was “Non-Toxic” throughout.
Take `CC(=O)Nc1ccc(OCc2nnc(SCc3ccc(C(F)(F)F)cc3)o2)cc1`: the result in the data set on Mus musculus [5] and in the data set with Mus musculus [6] was Active. Also, the Activity result in data set [3] and in data set [4] was “Non-Toxic” each time.
As for `Cc1ccc(CSc2nnc(COc3ccc4c(c3)CCC(=O)N4)o2)cc1`, the outcome in the data set with Mus musculus [5] and with Mus musculus [1] was Active. The Activity result in data set [3] and in data set [4] was “Non-Toxic” each time.
Turning to `CCCCSc1nnc(COc2ccc3c(c2)CCC(=O)N3)o1`, the result in the data set on Mus musculus [1] and in the data set on Mus musculus [2] was Active. The Activity entry in data set [3] and in data set [4] was “Non-Toxic” in each case.
Consider `CC(=O)Nc1ccc(OCc2nnc(SCc3ccc(C)cc3)o2)cc1`, for which the outcome in the data set on Mus musculus [1] and in the data set with Mus musculus [2] was Active. Further, the Activity entry in data set [3] and in data set [4] was “Non-Toxic” in each case.
As to `O=C1CCc2cc(OCc3nnc(SCc4ccccc4)o3)ccc2N1`, in the data set on Mus musculus [1], the result was Active. For the same molecule, the Activity entry in data set [3] and in data set [4] was “Non-Toxic” throughout.
`CC(=O)Nc1ccc(OCc2nnc(SCc3cccc(C(F)(F)F)c3)o2)cc1`: the outcome with Mus musculus [1] and with Mus musculus [2] was Active. The Activity result in data set [3] and in data set [4] was “Non-Toxic” throughout.
Turning to `CC(=O)Nc1ccc(OCc2nnc(SCc3ccccc3C(F)(F)F)o2)cc1`, the Activity result in data set [3] and in data set [4] was “Non-Toxic” each time.
For the molecule `O=C1CCc2cc(OCc3nnc(SCc4ccccc4Cl)o3)ccc2N1`, the result in the data set with Mus musculus [1] was Active. For the same molecule, in the data set with Mus musculus [6], the outcome was inactive. The Activity result in data set [3] and in data set [4] was “Non-Toxic” throughout.
On to `CCCCSc1nnc(COc2ccc(NC(C)=O)cc2)o1`, for which the outcome with Mus musculus [7] was inactive. For the same molecule, the Activity result in data set [3] and in data set [4] was “Non-Toxic” throughout.
Consider `CCCCCCCCSc1nnc(COc2ccc3c(c2)CCC(=O)N3)o1`, for which the result with Mus musculus [7] was inactive. For the same molecule, in the data set on Mus musculus [1], the outcome was Active. In addition, the Activity entry in data set [3] and in data set [4] was “Non-Toxic” throughout.
Take `Cc1ccccc1CSc1nnc(COc2ccc3c(c2)CCC(=O)N3)o1`: the result in the data set on Mus musculus [1] and in the data set with Mus musculus [2] was Active. In addition, the Activity entry in data set [3] and in data set [4] was “Non-Toxic” in each case.
As for `CC(=O)Nc1ccc(OCc2nnc(SCc3ccc(F)cc3)o2)cc1`, the outcome with Mus musculus [1] and in the data set on Mus musculus [2] was Active. Moreover, the Activity entry in data set [3] and in data set [4] was “Non-Toxic” in each case.
Turning to `CC(=O)Nc1ccc(OCc2nnc(SCc3ccccc3)o2)cc1`, the Activity entry in data set [3] and in data set [4] was “Non-Toxic” each time.
As for `O=C1CCc2cc(OCc3nnc(SCc4ccc(F)cc4)o3)ccc2N1`, in the data set with Mus musculus [5], the outcome was inactive. The result in the data set with Mus musculus [2] was Active. The Activity entry in data set [3] and in data set [4] was “Non-Toxic” each time.
